Measurements: ChEMBL document CHEMBL1201862, “PubChem BioAssay data set” (2004)
Active and inactive are the calls of the source.

What was measured:
[1] = target: Ras and Rab interactor 1/Tyrosine-protein kinase ABL1 (Homo sapiens, UniProt P00519+Q13671); assay type: functional;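 further: biochemical TR-FRET dose-response test measuring inhibition of binding between Rin1 and Abl proteins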
[2] = tested on: H4; assay: Luminescence Cell-Based Dose Response HTS to Identify Activators of 5'UTR Stem-Loop Driven Prion Protein mRNA Translation in H4 Neuroglioblastoma Cells. [Related pubchem assays: 1829 (Project Summary), 1814 (Primary HTS)]; assay type: functional; conditions: Homo sapiens
[3] = tested on: Vero; assay: cells; assay type: functional; conditions: Chlorocebus sabaeus
[4] = tested on: Vero; assay: cells; assay type: functional, cell-based; conditions: Chlorocebus sabaeus
[5] = Luminescence Cell-Based Dose Response HTS to Identify Activators of Luciferase Translation or Activity in H4 […] Cells. [Related pubchem assays: 1829 (Project Summary), 1814 (Primary HTS)]; assay type: functional
[6] = microbe, parasite or virus in culture; assay type: functional; conditions: Mycobacterium tuberculosis
[7] = Luminescence Cell-Based Dose Confirmation HTS to Identify Activators of 5'UTR Stem-Loop Driven Alpha-Synuclein mRNA Translation in H4 Neuroglioblastoma Cells. [Related pubchem assays: 1829 (Project Summary), 1814 (Primary HTS)]; assay type: functional
[8] = inhibition of ADAM10 peptide cleavage – biochemical, FRET peptide substrate, recombinant human ADAM10, selectivity assay for ADAM17 exosite inhibitor project, dose response (AID 743259);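 further: ADAM10 enzyme cleaving a FRET peptide substrate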
[9] = target: Disintegrin and metalloproteinase domain-containing protein 17 (Homo sapiens, UniProt P78536); assay: exosite inhibitors of ADAM17, dose response, biochemical (AID 743260)
[10] = HEK-293T cell viability reduction – luminescence, B-cell screen hits, cytotoxicity control for BCR NF-kB inhibitor project, dose response (AID 489021); assay type: functional, cell-based;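 further: HEK-293T cells carrying an NF-kB luciferase reporter; cells exposed to compound for about 14 hours before viability readout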
[11] = target: T1, Carboxy-terminal domain RNA polymerase II polypeptide A small phosphatase 1 (Homo sapiens, UniProt Q9GZU7); assay: CTDSP1 inhibitors, concentration-response, biochemical, absorbance readout, ultra-high-throughput screen actives (AID 540297); assay type: functional
T1 sequence (Q9GZU7 whole entry): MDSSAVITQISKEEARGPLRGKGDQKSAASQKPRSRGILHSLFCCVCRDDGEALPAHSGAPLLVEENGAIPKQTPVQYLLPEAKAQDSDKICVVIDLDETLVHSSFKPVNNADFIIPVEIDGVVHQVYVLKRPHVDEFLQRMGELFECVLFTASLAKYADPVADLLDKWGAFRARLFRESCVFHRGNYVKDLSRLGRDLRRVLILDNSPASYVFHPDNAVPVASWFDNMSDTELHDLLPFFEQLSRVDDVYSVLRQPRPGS

[12] = target: T2, Corticotropin-releasing factor receptor 2/Corticotropin-releasing factor-binding protein (Homo sapiens, UniProt P24387+Q13324); assay: activators of CRF receptor 2 with binding protein – uHTS hits, confirmation (AID 602473); assay type: functional; conditions: read-out: EC50_Mean
T2 sequence (Q13324 whole entry): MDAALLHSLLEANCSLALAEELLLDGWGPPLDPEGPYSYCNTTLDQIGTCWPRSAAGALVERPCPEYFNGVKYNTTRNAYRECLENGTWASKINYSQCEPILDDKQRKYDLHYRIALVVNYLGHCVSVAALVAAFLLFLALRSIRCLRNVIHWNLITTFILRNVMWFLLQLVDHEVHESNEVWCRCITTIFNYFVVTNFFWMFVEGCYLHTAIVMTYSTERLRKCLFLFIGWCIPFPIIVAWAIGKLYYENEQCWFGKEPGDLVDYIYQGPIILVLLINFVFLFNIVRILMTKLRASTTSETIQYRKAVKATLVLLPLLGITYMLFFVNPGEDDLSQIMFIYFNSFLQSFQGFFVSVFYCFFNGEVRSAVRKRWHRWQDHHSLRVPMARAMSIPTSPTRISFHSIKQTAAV
T2 sequence (P24387 whole entry): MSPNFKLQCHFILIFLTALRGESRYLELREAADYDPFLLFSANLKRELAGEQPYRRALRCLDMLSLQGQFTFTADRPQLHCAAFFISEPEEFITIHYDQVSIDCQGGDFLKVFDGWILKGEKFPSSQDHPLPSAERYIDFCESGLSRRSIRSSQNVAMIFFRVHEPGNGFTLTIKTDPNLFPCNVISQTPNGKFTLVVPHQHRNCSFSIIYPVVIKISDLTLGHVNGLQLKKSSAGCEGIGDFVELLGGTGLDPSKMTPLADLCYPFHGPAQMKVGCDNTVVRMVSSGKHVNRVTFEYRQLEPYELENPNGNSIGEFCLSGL

[13] = target: T3, Cytochrome P450 1A2 (Homo sapiens, UniProt P05177);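 further: PubChem cytochrome P450 panel assay, CYP1A2 panel member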
T3 sequence (P05177 whole entry): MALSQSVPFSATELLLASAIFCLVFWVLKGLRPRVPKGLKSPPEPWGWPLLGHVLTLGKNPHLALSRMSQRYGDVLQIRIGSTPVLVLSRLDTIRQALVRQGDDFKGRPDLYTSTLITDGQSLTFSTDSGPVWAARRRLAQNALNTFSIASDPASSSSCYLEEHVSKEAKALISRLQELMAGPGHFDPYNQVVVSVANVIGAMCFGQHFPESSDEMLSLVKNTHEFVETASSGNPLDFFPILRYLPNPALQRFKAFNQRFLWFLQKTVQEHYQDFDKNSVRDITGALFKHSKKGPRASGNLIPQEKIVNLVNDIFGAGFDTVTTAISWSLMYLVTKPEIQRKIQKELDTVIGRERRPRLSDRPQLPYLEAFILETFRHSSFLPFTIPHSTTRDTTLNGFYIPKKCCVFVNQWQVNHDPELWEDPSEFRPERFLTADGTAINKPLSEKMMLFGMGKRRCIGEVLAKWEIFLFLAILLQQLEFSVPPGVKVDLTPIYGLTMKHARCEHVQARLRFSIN

[14] = Trypanosoma cruzi growth suppression in host cells – NIH3T3 host cells, beta-gal luminescence, confirmation (AID 2044); assay type: functional, cell-based;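 further: intracellular parasites grown in NIH/3T3 mouse fibroblasts as host cells; luminescent beta-galactosidase reporter signal from transgenic T. cruzi replicating inside host cells; inhibitors lower the luminescence signal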
[15] = target: T4, Galanin receptor type 3 (Homo sapiens, UniProt O60755); assay: Fluorescence-based cell-based primary high throughput dose response assay to identify antagonists of the Galanin Receptor 3 (GalR3).; assay type: functional
T4 sequence (O60755 whole entry): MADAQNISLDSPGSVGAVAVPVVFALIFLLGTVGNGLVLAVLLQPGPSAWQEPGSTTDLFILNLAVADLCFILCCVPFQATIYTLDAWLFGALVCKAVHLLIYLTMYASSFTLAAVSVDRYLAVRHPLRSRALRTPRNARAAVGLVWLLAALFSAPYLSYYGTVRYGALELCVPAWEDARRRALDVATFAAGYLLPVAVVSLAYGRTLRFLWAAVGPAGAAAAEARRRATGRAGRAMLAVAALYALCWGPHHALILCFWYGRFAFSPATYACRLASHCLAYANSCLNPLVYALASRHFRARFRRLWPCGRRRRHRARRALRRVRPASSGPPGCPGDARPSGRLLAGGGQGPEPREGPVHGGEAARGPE

[16] = cells; assay type: functional, cell-based; conditions: HEK-CNG
[17] = NIH3T3 cell viability loss – ATP luminescence, mouse fibroblasts, counter-screen, dose response (AID 2010); assay type: functional, cell-based;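 further: cells exposed to compound for about 90 hours before reading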
[18] = viability of uninfected HEp-2 cells – cell-based, HTS, cytotoxicity control for RSV inhibitor project, dose response (AID 2410); assay type: functional; conditions: human respiratory syncytial virus
[19] = cells

Sequence of Ras and Rab interactor 1/Tyrosine-protein kinase ABL1 (P00519 whole entry): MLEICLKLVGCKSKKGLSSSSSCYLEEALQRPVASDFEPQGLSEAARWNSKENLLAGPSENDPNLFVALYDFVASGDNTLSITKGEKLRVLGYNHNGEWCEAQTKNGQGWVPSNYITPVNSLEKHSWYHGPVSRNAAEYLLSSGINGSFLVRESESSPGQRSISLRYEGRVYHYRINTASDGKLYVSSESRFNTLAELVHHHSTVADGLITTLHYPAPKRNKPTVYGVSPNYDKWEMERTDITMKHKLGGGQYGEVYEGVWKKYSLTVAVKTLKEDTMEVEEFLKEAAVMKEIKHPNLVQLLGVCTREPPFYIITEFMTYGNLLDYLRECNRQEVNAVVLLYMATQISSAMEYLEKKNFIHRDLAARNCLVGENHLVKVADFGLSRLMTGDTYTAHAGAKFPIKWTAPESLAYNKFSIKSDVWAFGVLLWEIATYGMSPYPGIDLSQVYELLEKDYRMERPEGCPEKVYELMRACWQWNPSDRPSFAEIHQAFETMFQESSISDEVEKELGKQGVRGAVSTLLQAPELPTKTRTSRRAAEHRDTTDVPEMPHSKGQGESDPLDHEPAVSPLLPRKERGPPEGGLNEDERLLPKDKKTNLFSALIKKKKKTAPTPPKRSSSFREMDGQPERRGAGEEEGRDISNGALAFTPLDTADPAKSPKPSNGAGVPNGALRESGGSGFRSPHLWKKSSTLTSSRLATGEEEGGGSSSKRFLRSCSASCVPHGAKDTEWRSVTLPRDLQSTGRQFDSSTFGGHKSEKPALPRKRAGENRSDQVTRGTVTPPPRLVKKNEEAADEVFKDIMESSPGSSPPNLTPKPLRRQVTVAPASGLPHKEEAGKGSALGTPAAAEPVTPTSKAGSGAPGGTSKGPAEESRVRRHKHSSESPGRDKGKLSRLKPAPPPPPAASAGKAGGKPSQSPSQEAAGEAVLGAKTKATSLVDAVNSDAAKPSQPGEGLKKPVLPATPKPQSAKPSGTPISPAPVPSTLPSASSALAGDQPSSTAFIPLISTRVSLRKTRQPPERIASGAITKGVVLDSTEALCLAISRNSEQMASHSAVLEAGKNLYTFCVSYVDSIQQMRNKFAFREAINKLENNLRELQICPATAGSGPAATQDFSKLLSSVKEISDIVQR
Sequence of Ras and Rab interactor 1/Tyrosine-protein kinase ABL1 (Q13671 whole entry): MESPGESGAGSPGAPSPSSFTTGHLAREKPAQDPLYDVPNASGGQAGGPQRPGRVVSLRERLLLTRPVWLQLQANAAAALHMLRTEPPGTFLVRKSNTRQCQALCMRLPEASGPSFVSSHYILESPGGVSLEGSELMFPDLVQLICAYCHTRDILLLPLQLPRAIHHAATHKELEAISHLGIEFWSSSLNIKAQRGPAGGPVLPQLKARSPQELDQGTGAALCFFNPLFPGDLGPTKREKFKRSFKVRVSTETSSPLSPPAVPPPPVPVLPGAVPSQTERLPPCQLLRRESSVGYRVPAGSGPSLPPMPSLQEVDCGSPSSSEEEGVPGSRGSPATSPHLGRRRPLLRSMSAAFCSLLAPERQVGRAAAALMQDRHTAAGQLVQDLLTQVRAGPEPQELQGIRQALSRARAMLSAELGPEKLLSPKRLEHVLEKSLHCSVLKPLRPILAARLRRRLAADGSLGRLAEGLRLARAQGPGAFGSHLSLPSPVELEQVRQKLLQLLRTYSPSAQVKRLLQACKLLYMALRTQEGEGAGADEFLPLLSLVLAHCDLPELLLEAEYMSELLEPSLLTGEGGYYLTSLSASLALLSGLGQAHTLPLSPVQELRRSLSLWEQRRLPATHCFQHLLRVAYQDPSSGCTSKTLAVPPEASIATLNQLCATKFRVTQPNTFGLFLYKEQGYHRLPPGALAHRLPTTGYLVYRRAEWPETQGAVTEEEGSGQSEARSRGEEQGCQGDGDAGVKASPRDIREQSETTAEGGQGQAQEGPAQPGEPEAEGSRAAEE
Sequence of Disintegrin and metalloproteinase domain-containing protein 17 (P78536 whole entry, the tested form may be a part): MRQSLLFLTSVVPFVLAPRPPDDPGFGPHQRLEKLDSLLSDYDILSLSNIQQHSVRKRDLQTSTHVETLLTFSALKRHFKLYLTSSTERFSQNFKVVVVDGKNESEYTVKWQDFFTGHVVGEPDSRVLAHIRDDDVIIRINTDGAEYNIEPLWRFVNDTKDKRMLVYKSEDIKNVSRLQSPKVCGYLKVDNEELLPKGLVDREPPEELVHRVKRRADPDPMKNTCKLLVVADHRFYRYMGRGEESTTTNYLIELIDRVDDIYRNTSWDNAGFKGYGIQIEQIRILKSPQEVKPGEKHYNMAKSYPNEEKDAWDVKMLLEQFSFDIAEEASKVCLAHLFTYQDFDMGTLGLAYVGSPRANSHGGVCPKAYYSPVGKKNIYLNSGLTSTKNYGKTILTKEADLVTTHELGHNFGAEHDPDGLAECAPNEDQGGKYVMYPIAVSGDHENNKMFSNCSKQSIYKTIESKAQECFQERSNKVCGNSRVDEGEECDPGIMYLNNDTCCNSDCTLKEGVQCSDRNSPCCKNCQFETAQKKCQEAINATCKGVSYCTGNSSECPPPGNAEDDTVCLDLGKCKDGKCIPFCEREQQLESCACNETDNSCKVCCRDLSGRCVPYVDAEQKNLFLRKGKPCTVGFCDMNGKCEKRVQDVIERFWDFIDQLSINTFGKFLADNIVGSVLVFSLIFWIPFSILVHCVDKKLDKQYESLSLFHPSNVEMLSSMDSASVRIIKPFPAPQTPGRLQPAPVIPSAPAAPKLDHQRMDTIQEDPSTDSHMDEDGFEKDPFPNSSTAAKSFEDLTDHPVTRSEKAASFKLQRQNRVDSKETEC

Oc1nc2ccccc2n1C1CCN(C(c2nnnn2C2CCCC2)C2CC2)CC1 (centres undefined)
IC50 [1]: 17.3 µM (inactive)

CC(C)C1N=C(c2ccc3c(c2)OCO3)CC(c2ccccc2O)N1 (centres undefined)
EC50 [2]: 4.62 µM (active)
CC50 [3]: 14.7 µM (active)
IC50 [4]: > 25 µM (active)
EC50 [5]: 15.4 µM (active)
CC50 [6]: 13.8 µM (active)
EC50 [7]: 16.6 µM (active)

Nc1[nH]c(C(=O)c2ccc(Br)cc2)c(-c2ccccn2)c1C(=O)NCCc1c[nH]c2ccccc12
IC50 [8]: 16.4 µM (inactive)
IC50 [9]: > 69.5 µM (inactive)

COc1ccc(/C=C2\SC(=S)N(CCC(=O)Nc3ccc(C(=O)O)cc3)C2=O)cc1
IC50 [10]: > 80 µM (inactive)
IC50 [11]: 2.63 µM (active)

c1nnc(NCNc2nncs2)s1
EC50 [12]: > 53 µM (inactive)
CC50 [3]: > 25 µM (active)
AC50 [13]: 2 µM (inconclusive)
IC50 [4]: > 25 µM (active)

CC1(C)CC2CC(C)(CN2S(=O)(=O)c2ccc(C(=O)Nc3ccc(S(=O)(=O)N4CCOCC4)cc3)cc2)C1 (centres undefined)
EC50 [14]: 1.83 µM (active)
IC50 [15]: 0.96 µM (active)
EC50 [16]: > 29.9 µM (inactive)
IC50 [10]: > 80 µM (inactive)
EC50 [17]: > 60 µM (not active)

Cc1cc(NC(=O)COC(=O)c2c(Cl)cccc2Cl)no1
CC50 [18]: > 50 µM (active)
IC50 [4]: > 25 µM (active)
IC50 [19]: 21.8 µM (active)

COc1cc(/C=N/NC(=O)CSc2ccccn2)ccc1OC(C)C
IC50 [1]: 19.1 µM (inactive)
